According to patent EP3959993B1, “METHOD FOR SOLVENT FREE PRODUCTION OF AROMA CONCENTRATES” (Symrise AG, priority 2020, dated 2022):

What was measured:
[1] = Second oil phase obtained by adding NaCl to the water phase (Example 4); type: physicochemical; conditions: after separating oil phases I and II
Method: Cross linked polystyrene was used as adsorbent material. The volume flux for loading the adsorbent was 300 ml/min.
The adsorbent was heated to 150 °C, the temperature of the applied water steam was 160 °C.
The water steam flux was 10 g/min and was applied for 100 min.
The oil and water phases were separated.
A second oil phase was separated and was collected.

[2] = Influence of the amount of NaCl on the distribution between oil phase and water phase (Example 5); type: physicochemical

Compound	Loss in the water phase [1]	Distribution in [%] between oil phase and water phase after condensation: Oil phase ([2]; NaCl 0%)	Distribution in [%] between oil phase and water phase after condensation: Water phase ([2]; NaCl 0%)	Distribution in [%] between oil phase and water phase after condensation: Oil phase ([2]; NaCl 27.8 %)	Distribution in [%] between oil phase and water phase after condensation: Water phase ([2]; NaCl 27.8 %)	Distribution in [%] between oil phase and water phase after condensation: Oil phase ([2]; NaCl 41.67%)	Distribution in [%] between oil phase and water phase after condensation: Water phase ([2]; NaCl 41.67%)	Distribution in [%] between oil phase and water phase after condensation: Oil phase ([2]; NaCl 55.56 %)	Distribution in [%] between oil phase and water phase after condensation: Water phase ([2]; NaCl 55.56 %)	Distribution in [%] between oil phase and water phase after condensation: Oil phase ([2]; NaCl 69.44 %)	Distribution in [%] between oil phase and water phase after condensation: Water phase ([2]; NaCl 69.44 %)	Distribution in [%] between oil phase and water phase after condensation: Oil phase ([2]; NaCl 83.33 %)	Distribution in [%] between oil phase and water phase after condensation: Water phase ([2]; NaCl 83.33 %)
CC(C)CCO [3-methyl butanol]	17,9%	28.4%	71.6%	39%	61%	63.1%	36.9%	69.7%	30.3%	68.9%	31.1%	82.1%	17.9%
CCCCCO [pentanol]	15,4%	29.5%	70.5%	56.8%	43.2%	67.2%	32.8%	73.8%	26.2%	79.8%	20.2%	84.6%	15.4%
CCC/C=C/COC(C)=O [trans-2-hexenyl acetate]	0,0%	100%	0%	97.2%	2.8%	100%	0%	100%	0%	100%	0%	100%	0%
CCCCCC(=O)O [caproic acid]	2,1%	43.5%	56.5%	84.9%	15.1%	91.5%	8.5%	94.9%	5.1%	97%	3%	97.9%	2.1%
O=Cc1ccccc1 [benzaldehyde]	19,2%	27%	73%	57.5%	42.5%	64.7%	35.3%	70.4%	29.6%	76.7%	23.3%	80.8%	19.2%
CCC(C)COC(C)=O (stereo not drawn) [2-methyl butyl acetate]	0,2%	79.3%	20.7%	97.1%	2.9%	98.6%	1.4%	99.2%	0.8%	99.7%	0.3%	99.8%	0.2%
